Results: paper PMC9436958, “The synthesis of novel thioderivative chalcones and their influence on NF-κB, STAT3 and NRF2 signaling pathways in colorectal cancer cells” (Scientific Reports, 2022)
Where two headings read alike, the source gives them in different places.

Columns and labels:
[1] = system: DLD-1 cells; test: Wound healing assay (cell migration); assay type: cell-based; details: 24 h, 4 at standard concentration (1 μM), BAY 11-7082 5 µM
Description: Cell migration was assessed by the wound healing assay. DLD-1 cells were seeded into 24-well plates (5 × 10^5 cells per well) and were grown overnight to reach confluency. A scratch was performed using a 10 μl tip, wells were rinsed twice with PBS buffer to remove detached cells, and fresh medium with reduced FBS concentration (0.5%) containing the tested compounds was added. Subsequently, representative microscopic photographs of scratch areas were taken by JuLI FL microscope (NanoEntek, South Korea) direct after the addition of compounds and after 24 h. Area covered by cells (%) was assessed using JuLI FL software and the difference in the coverage of the growth area by DLD-1 cells between 0 and 24 h time points was calculated for each well. The experiment was repeated three times. The relative effect of the tested compounds on cell migration was calculated by comparing the difference in cell coverage area between compound-treated cells and DMSO-vehicle control (tested compound [area 24 h − area 0 h] / DMSO-vehicle control [area 24 h − area 0 h]).

[2] = system: HCT116 cells; test: Cell cycle distribution, PI staining, flow cytometry, HCT116; assay type: cell-based; details: 48 h, BAY 11-7082 5 µM, 4 and 5 in higher (doubled) concentrations
Description: (§1) The analysis of the cell cycle distribution was performed by propidium iodide (PI) staining. The addition of RNase A improved the specificity of PI binding to DNA. The Muse Cell Cycle Kit (Luminex, USA) and flow cytometric detection were performed with the Muse Cell Analyzer (Merck, Germany), according to the manufacturer’s protocol. Briefly, cells were seeded (2 × 10^5 cells per well) in 6-well plates and on the following day the analyzed compounds were added. Topotecan (Sigma-Aldrich, USA) was used as a positive control of cell cycle arrest. After 48 h cells were collected by trypsinization, fixed in cold 70% ethanol and stored at –20 °C. Then, fixed cells were collected and stained with PI, subjected to 30 min incubation at room temperature in the dark and analyzed by flow cytometry. Three independent experiments were performed. Data were analyzed by Muse 1.5 Analysis Software (Merck, Germany).

[3] = system: DLD-1 cells; test: Apoptosis, Annexin V / 7-AAD flow cytometry, DLD-1; assay type: cell-based; details: 48 h, mainly early and total apoptotic populations enriched
Description: (§2) Apoptosis was assessed by the detection of phosphatidylserine externalization based on Annexin V staining combined with fluorescent DNA intercalator 7-Aminoactinomycin D (7-AAD) what allowed for the discrimination between early and late apoptotic cells. The analysis was performed by flow cytometry using the Muse Annexin V & Dead Cell Kit (Luminex, USA) and the Muse Cell Analyzer (Merck, Germany), according to the manufacturer’s protocol. Cells were seeded (2 × 10^5 cells per well) in six-well plates and on the following day the analyzed compounds were added. Topotecan (Sigma-Aldrich, USA) was used as a positive control of apoptosis induction. After 48 h cells were collected by trypsinization, stained and after 20 min incubation at room temperature in the dark analyzed by flow cytometry. Three independent experiments were performed. Data were analyzed by Muse 1.5 Analysis Software (Merck, Germany).

[4] = system: NF-κB p50; test: Western blot, NF-κB p50 protein level; assay type: cell-based; details: BAY 11-7082 5 µM; both tested cell lines
Description: (§3) Cytosolic and nuclear extracts were prepared using a Nuclear/Cytosol Fractionation Kit (BioVision Research, USA). Cytosolic extracts (for NF-κBp65, NF-κBp50, COX-2, iNOS, STAT3, c-Myc, Bcl-xl, Nrf2, SOD, GSTP, EGFR, Akt, p-Akt, Keap1, IKKα/β and β-actin) or nuclear extracts (for NF-κBp65, NF-κBp50, STAT3, p-STAT3, Nrf2, p-Nrf2 and lamin) were separated on 7.5%, 10% or 12% SDS–PAGE slab gels. Then, the proteins were transferred to a nitrocellulose Immobilon-P membrane. After blocking for 2 h with 10% skimmed milk, proteins were incubated with primary antibodies against NF-κBp65, NF-κBp50, COX-2, iNOS, STAT3, p-STAT3, c-Myc, Bcl-xl, Nrf2, p-Nrf2, SOD, GSTP, EGFR, Akt, p-Akt, Keap1, IKKα/β, β-actin, and lamin. Alkaline phosphatase (AP)-labeled anti-rabbit IgG, anti-goat IgG, and anti-mouse IgG secondary antibodies (Bio-Rad Laboratories, USA), as well as horseradish peroxidase (HRP)-conjugated anti-mouse IgG (Boster Bio, USA) secondary antibodies were used in the staining reaction. Bands were visualized by the AP Conjugate Substrate Kit NBT/BCIP or the chemiluminescent HRP substrate of the Clarity ECL Kit (Bio–Rad Laboratories, USA). The amount of immunoreactive product in each lane was determined using a ChemiDoc Imaging System (Bio–Rad Laboratories, USA). Values were calculated as relative absorbance units (RQ) per mg of protein and expressed as a percentage of the control.

[5] = system: COX-2; test: COX-2 expression (qRT-PCR mRNA, Western blot protein); assay type: cell-based; details: BAY 11-7082 5 µM; both tested cell lines
Description: as §3
Total RNA from cells was isolated with the GeneMatrix Universal DNA/RNA/Protein Purification Kit (EurX, Poland). For the qRT-PCR analyses, the Maxima SYBR Green I/ROX qPCR Master Mix (2×) (Thermo Fisher Scientific, USA) and the thermal cycler LightCycler (Roche, Germany) were used. The protocol started with 5 min of enzyme activation at 95 °C, followed by 40–50 cycles at 95 °C for 15 s, 56 °C for 20 s, 72 °C for 40 s, and final elongation at 72 °C for 5 min. Melting curve analysis was used for amplicon verification. The expression levels of TATA-box-binding protein (TBP) and porphobilinogen deaminase (PBGD) were used to normalize the data. The Pfaffl comparative method was used to calculate fold change. Primers were designed using Beacon Designer software (the sequences of primers used to analyze genes are listed in Table 2 of the supplementary materials).

[6] = system: NF-κB p65; test: Western blot, NF-κB p65 protein level; assay type: cell-based; details: BAY 11-7082 5 µM; both tested cell lines
Description: as §3

[7] = system: DLD-1 cells; test: Cell cycle distribution, PI staining, flow cytometry, DLD-1; assay type: cell-based; details: 48 h, BAY 11-7082 5 µM, 5 in higher (doubled) concentration
Description: as §1

[8] = system: HCT116 cells; test: Apoptosis, Annexin V / 7-AAD flow cytometry, HCT116; assay type: cell-based; details: 48 h, increase of early, late and total apoptosis
Description: as §2

[9] = system: COX-2; parameters: method as in PMID 34120541; details: PANC-1 pancreatic cancer cells; cited from earlier work
[10] = system: NF-κB; parameters: method as in PMID 34120541; details: PANC-1 pancreatic cancer cells; cited from earlier work
[11] = system: Nrf2 signaling pathway; parameters: method as in PMID 23085367, PMID 34120541; details: cited from earlier work

SMILES | reduction of cell migration rate (wound healing) vs DMSO-treated cells [1] | cell cycle distribution (in words) [2] | induction of apoptosis [3] | level of NF-κBp50, compared with the studied chalcones [4] | level of COX-2, compared with the studied chalcones [5] | level of NF-κBp65, compared with the studied chalcones [6] | cell cycle distribution (in words) [7] | induction of apoptosis [8] | expression of COX-2 [9] | activation of NF-κB [10] | binding of both NF-κB subunits to DNA [10] | activation of the Nrf2 signaling pathway ([11]; HepG2 hepatoma cells) | activation of the Nrf2 signaling pathway ([11]; PANC-1 pancreatic cancer cells)
Cc1ccc(S(=O)(=O)/C=C/C#N)cc1 [BAY 11-7082, reference compound] | at the same level as DMSO-treated cells | decreased G1/G0 phases; increased S and G2/M phases | able to induce apoptosis | more potent inhibition | more potent inhibition | more potent inhibition | decrease of G1/G0 cell cycle phase | able to induce apoptosis |  |  |  |  | 
COc1cc(O)c(CC=C(C)C)c(O)c1C(=O)/C=C/c1ccc(O)cc1 [xanthohumol] |  |  |  |  |  |  |  |  | decreased | decreased the activation of NF-κB | decreased | significantly increased activation | significantly increased activation
